The values below come from patent US20030022820A1, “IN VIVO ACTIVATION OF TUMOR-SPECIFIC CYTOTOXIC T CELLS” (priority 1995, published 2003).

For the experiment, the target named is A2.1/K^b on EA2 target cells (UniProt P01901+P04439, D140Y/D185E/D98H/E176V/G131W/I119V/I121R/I166T/N151K/N90K/Q86G/Q94H/R138H/R169H). The class given is binding, chimeric human-mouse.

Regarding “ILKEPVHGV [HIV-1 RT: 476-484, reference compound]”, the “binding to A2.1/K^b (percent specific lysis of EA2/K^b targets, FIG. 1), in words” value is “efficiently bound to A2.1/K^b”. Consider ILLVVVLGV [Peptide H9], for which the “inhibition of binding of the influenza A-derived peptide to A2.1/K^b (FIG. 5), in words” value is “highest efficiency”.
